PubChem BioAssay (NCI)
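Values below derive from 48-hour exposures of cells grown in 96-well plates, with endpoints linearly interpolated between the two concentrations bracketing the appropriate inhibition level. GI50: concentration for 50% inhibition of growth. TGI denotes the concentration required for complete inhibition of growth.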

How the values were obtained:
Experiment in all cases: inhibition of tumour cell growth, NCI panel, 48 h
HOP-92 NSCLC = test system: HOP-92 NSCLC
CCRF-CEM leukemia = test system: CCRF-CEM leukemia
OVCAR-8 ovarian = test system: OVCAR-8 ovarian
SK-MEL-28 melanoma = test system: SK-MEL-28 melanoma
U251 CNS = test system: U251 CNS
KM12 colon = test system: KM12 colon
HL-60(TB) leukemia = test system: HL-60(TB) leukemia
COLO 205 colon = test system: COLO 205 colon
HOP-62 NSCLC = test system: HOP-62 NSCLC

Compound	TGI (HOP-92 NSCLC) [µM]	TGI (CCRF-CEM leukemia) [µM]	TGI (OVCAR-8 ovarian) [µM]	TGI (SK-MEL-28 melanoma) [µM]	TGI (U251 CNS) [µM]	TGI (KM12 colon) [µM]	TGI (HL-60(TB) leukemia) [µM]	TGI (COLO 205 colon) [µM]	TGI (HOP-62 NSCLC) [µM]	GI50 (CCRF-CEM leukemia) [µM]	GI50 (U251 CNS) [µM]	GI50 (KM12 colon) [µM]	GI50 (HL-60(TB) leukemia) [µM]	GI50 (COLO 205 colon) [µM]	GI50 (HOP-62 NSCLC) [µM]	GI50 (HOP-92 NSCLC) [µM]	GI50 (OVCAR-8 ovarian) [µM]	GI50 (SK-MEL-28 melanoma) [µM]
N#C/C(C(=O)Nc1ccc(Cl)cc1)=C(/N)N1CCCC1	> 100	> 100	> 100	> 100	> 100	> 100	> 100	> 100	> 100									
O=P(O)(O)c1ccccc1Oc1ccccc1	> 100	> 100	> 100	> 100	> 100	> 100	> 100	> 100	> 100									
OCCOCn1nncc1Cn1ncc2c(SCc3ccccc3)ncnc21	> 100		> 100	> 100	> 100	> 100	53.5	> 100	> 100									
CC1(C)OCC2OC3([C@@H]4OC(C)(C)O[C@H]4CO)OC(C)(C)OC3C2O1 (stereo partly specified)	> 100	> 100	> 100	> 100	> 100	> 100		> 100	> 100									
COc1ccc(-c2c3c(n(C4OC(CO)C(O)C(O)C4O)c(=S)c2C#N)CCC3)cc1 (stereo unspecified)	> 100	> 100		> 100	> 100	> 100	> 100	> 100	> 100									
C1=C2C3=[N+](CCCCC3)CC2Cc2ccsc21 (stereo unspecified)	> 100	> 100	> 100	> 100	> 100	> 100	> 100	> 100	> 100									
COc1cc2cc(C(=O)N3C[C@H](CCl)c4c3cc(N)c3ccccc43)[nH]c2c(OC)c1OC	> 50	> 50	> 50		> 50	0.0922	0.164	< 0.005	0.112	0.005	0.005	0.0115	0.0171	< 0.005	0.005			
O=C1C=CC(=O)N1n1c(-c2ccccc2)n[nH]c1=O		> 100	> 100		> 100		> 100	> 100	> 100									
O=C1NC2CCCCC2N=C1CC(=O)c1ccc(Br)cc1 (stereo unspecified)	65.8	> 100	19.8	> 100	> 100	> 100	> 100	> 100	> 100									
Cc1cc2c(O)c(c1)CN(CC(=O)O)Cc1cc(C)cc(c1O)CN(CC(=O)O)Cc1cc(C)cc(c1O)CN(CC(=O)O)C2	> 100	> 100	> 100	> 100	> 100	> 100		> 100	> 100									
CC1C(NNc2ccccc2)Oc2cc3c(cc2C1c1ccccc1O)OCO3 (stereo unspecified)	26.9	13	86.8	26.6	22.4	16.8	15.1	24.5	16.2									
COc1ccc(C2C3=C(COC3=O)Oc3cc4c(cc32)OCO4)c(OC)c1 (stereo unspecified)		> 100	> 100	> 100	> 100	> 100	39.9	> 100	> 100									
COc1ccc(OC2OC(CO)C(OCc3ccccc3)C(OCc3ccccc3)C2OCc2ccccc2)cc1 (stereo unspecified)		> 100	> 100	> 100	> 100	> 100	> 100	> 100	> 100									
O=C(CCc1cc(O)cc(O)c1)NCCCNC(=O)CCc1cc(O)cc(O)c1	> 100	> 100	> 100	> 100	> 100	> 100		> 100	> 100									
CCP(=O)(OC)C1=CCN(C(=O)OCC[Si](C)(C)C)CC1 (stereo unspecified)	> 100	> 100	> 100	> 100	> 100	> 100	> 100	> 100	> 100									
Cc1ccc2c(c1)-c1c(C#N)c(N)nc(-c3ccc(Cl)cc3)c1CCS2(=O)=O	> 100	> 23.7	> 100	> 100	> 100	> 100		31.3	> 100									
CC(C)C(CC(=O)OCC(CO)OC(=O)CC(C(C)C)C(C)C)C(C)C (stereo unspecified)	16.9	31.7		30.3	30.9	32		20	23									
N#CC1(O)CCCCCCCCCCC1	> 100	> 100	> 100	> 100	> 100	> 100	> 100	> 100	> 100									
CN(C)CCCNC(=O)c1cc(NC(=O)c2cc(NC(=O)CCCn3c4ccccc4c4ccccc43)cn2C)cn1C	40.1	> 100	> 66.2	92	> 62.2	43.9	> 72.4	7.88	30.9									
Cn1c(=O)c(-c2ccccc2)c(O)c2ccccc21	> 100	> 100	> 100	> 100	> 100	> 100	> 100	> 100	> 100									
O=c1nc2c(c(-c3ccc(Br)cc3)[nH]1)COC/C2=C\c1ccc(Br)cc1	> 50	> 50	> 50	> 50	> 50	> 50	> 50	> 50	> 50									
O=c1cc(-c2ccncc2)[nH]c2cc3c(cc12)OCO3	> 100		> 100	> 100	> 100	> 100		> 100	> 100									
CN(C)CC1CCC/C(=C\c2ccc(OC(=O)c3ccc(Cl)cc3)cc2)C1=O (stereo unspecified)	4.75		3.23	8.52	3.08	5.9	11.9	4.81	12.6									

Compound	TGI (HOP-92 NSCLC) [µM]	TGI (CCRF-CEM leukemia) [µM]	TGI (OVCAR-8 ovarian) [µM]	TGI (SK-MEL-28 melanoma) [µM]	TGI (U251 CNS) [µM]	TGI (KM12 colon) [µM]	TGI (HL-60(TB) leukemia) [µM]	TGI (COLO 205 colon) [µM]	TGI (HOP-62 NSCLC) [µM]	GI50 (CCRF-CEM leukemia) [µM]	GI50 (U251 CNS) [µM]	GI50 (KM12 colon) [µM]	GI50 (HL-60(TB) leukemia) [µM]	GI50 (COLO 205 colon) [µM]	GI50 (HOP-62 NSCLC) [µM]	GI50 (HOP-92 NSCLC) [µM]	GI50 (OVCAR-8 ovarian) [µM]	GI50 (SK-MEL-28 melanoma) [µM]
O=C(O)c1cccc2cccc(-c3cccc4cccc(C(=O)O)c34)c12		> 100	> 100	> 100	> 100	> 100	> 100	> 100	> 100									
CCC(O)(Cc1ccc(OC)cc1)c1ccc(OC)cc1 (stereo unspecified)	> 100	> 100	> 100		> 100	> 100	> 100	> 100	> 100									
Cc1ccc(C(=O)N/N=C(\N=Nc2ccccc2)c2ccc(N(C)C)cc2)cc1	> 100	> 100	> 100	> 100	> 100	> 100	> 100	> 100										
O=C1C=CC=C/C1=C1\N=C(c2ccccc2OCC(=O)c2ccccc2)SS1	> 100	> 100	> 100	> 100	> 100	> 100	> 100		> 100									
CO[C@H]1SC[C@H](OC(C)=O)[C@H](OC(C)=O)[C@H]1OC(C)=O		> 100	> 100	> 100	> 100	> 100	> 100	> 100	> 100									
C=C(C)OCOCCOC		> 100	> 100	> 100	> 100	> 100	> 100	> 100	> 100									
CC(=O)OCC1OC(n2c(-c3ccccc3)c(N=Nc3ccccc3)c(C)c(C#N)c2=S)C(OC(C)=O)C(OC(C)=O)C1OC(C)=O (stereo unspecified)	> 100	> 100		> 100	> 100	> 100	> 100	> 100	> 100									
CC[C@H](Nc1nc(C)nc(N)c1C#N)c1nc2cccc(NCc3ccc(C(=O)NO)cc3)c2c(=O)n1-c1ccccc1	3.07	9.21	3.71	3.28	2.97	3.45		3.8	3.09	0.551	1.48	1.81		1.74	1.49	1.38	1.55	1.6
CCc1c(CNc2ccc(C(=O)NC(CC(=O)O)C(=O)O)cc2)ccc2nc(N)nc(N)c12 (stereo unspecified)	> 1000	> 1000	> 1000	> 1000	> 1000	> 1000			> 1000		372					> 1000		> 1000
Cc1c(CN2CCN(C)CC2)c(CN2CCN(C)CC2)c(C)n1-c1ccc(Cl)cc1		46.8	51.6	39.2	> 100	> 100		55.5	> 100									
Cc1cc(C)c2c(=O)cc(-c3cccc(F)c3)[nH]c2n1	0.489		> 100	92.9	> 84.1	13.3	0.226	0.354	> 79.9									
COc1cc(CC(C)NC(C)=O)cc(OC)c1 (stereo unspecified)		> 100	> 100	> 100	> 100	> 100	> 100	> 100	> 100									
Cc1cc(S(=O)(=O)Nc2n[nH]c(-c3ccccn3)n2)c(S)cc1Cl	64.1		30.4	> 100	67.3	> 100	41.2	90.6	59									
C=C1N(C=O)C(C)(C)N(O)C1(C)C	> 100		> 100	> 100	> 100	> 100		> 100	> 100									
COc1ccccc1CN=C1Nc2ccncc2S(=O)(=O)N1c1ccccc1	> 100	> 100	> 100	> 100	> 100	> 100	> 100	> 100										
C=C1C(OC2O[C@@H]3O[C@@]4(C)CC[C@H]5[C@H](C)CC[C@@H](C2=C)[C@@]35O4)O[C@@H]2O[C@@]3(C)CC[C@H]4[C@H](C)CC[C@@H]1[C@@]24O3 (stereo partly specified)	> 50	> 50		> 50	> 50	> 50	> 50	> 50	> 50									
COc1cc(C(=O)Oc2ccc3c(c2)OCO3)cc(OC)c1OC	> 100		> 100	> 100	> 100	> 100	> 100	> 100	> 100									
CSC(SC)=C(C(=O)O)P(=O)(O)O	> 100	> 100	> 100	> 100		> 100	> 100	> 100	> 100									
S=C(N/N=C\C(=N/NC(=S)N1CCCCC1)c1ccccc1)N1CCCCC1	3.88			3.65	3.56	3.98		3.86	5.83									
COC(=O)C1C(C(=O)OC)C2(OC(c3ccc(Cl)cc3)=CC2=O)C12OC(c1ccc(Cl)cc1)=CC2=O (stereo unspecified)	37.6	8.23		> 100	> 100		8.29	34.6										
COc1cc(S(=O)(=O)Nc2ccc(C(=O)/C=C/c3ccc(O)cc3)cc2)ccc1F	27.5	> 100	> 100	> 100	> 100	> 100		> 100	> 100	> 100	> 100	> 100		> 100	> 100	1.55	> 100	> 100
COc1cc(C(c2c(O)c3ccccc3oc2=O)c2c(O)c3ccccc3oc2=O)cc(Br)c1O	26.2		32.3	59.2	31.9	38.7	64.2	32	45.8									
COc1cccc2c1C(=O)c1c(O)c3c(c(O)c1C2=O)C[C@H](O)C[C@@H]3OC1CC(N)C(O)C(C)O1 (stereo partly specified)	17.6	6.06	3.64	9.13		10.1		10.3	10.5									
